Results as given in patent publication US12227500B2, “Substituted pyrrolo[2,3-b]pyridines for suppressing toxic endoplasmic reticulum stress” (THE TRUSTEES OF COLUMBIA UNIVERSITY IN THE CITY OF NEW YORK, priority 2018, dated 2025).
Read-outs that look alike come from different tables or passages of the source.

How the values were obtained:
MLK3/MAP3K11 = target: T1, MLK3/MAP3K11 (Homo sapiens, UniProt Q16584); assay: Radiolabeled ATP kinase assay (Reaction Biology Corp.), MLK3; type: biochemical; details: [Cmpd] 0.1 μM; 10 μM ATP
T1 construct: purchased Reaction Biology Corp
T1 sequence (Q16584 whole entry): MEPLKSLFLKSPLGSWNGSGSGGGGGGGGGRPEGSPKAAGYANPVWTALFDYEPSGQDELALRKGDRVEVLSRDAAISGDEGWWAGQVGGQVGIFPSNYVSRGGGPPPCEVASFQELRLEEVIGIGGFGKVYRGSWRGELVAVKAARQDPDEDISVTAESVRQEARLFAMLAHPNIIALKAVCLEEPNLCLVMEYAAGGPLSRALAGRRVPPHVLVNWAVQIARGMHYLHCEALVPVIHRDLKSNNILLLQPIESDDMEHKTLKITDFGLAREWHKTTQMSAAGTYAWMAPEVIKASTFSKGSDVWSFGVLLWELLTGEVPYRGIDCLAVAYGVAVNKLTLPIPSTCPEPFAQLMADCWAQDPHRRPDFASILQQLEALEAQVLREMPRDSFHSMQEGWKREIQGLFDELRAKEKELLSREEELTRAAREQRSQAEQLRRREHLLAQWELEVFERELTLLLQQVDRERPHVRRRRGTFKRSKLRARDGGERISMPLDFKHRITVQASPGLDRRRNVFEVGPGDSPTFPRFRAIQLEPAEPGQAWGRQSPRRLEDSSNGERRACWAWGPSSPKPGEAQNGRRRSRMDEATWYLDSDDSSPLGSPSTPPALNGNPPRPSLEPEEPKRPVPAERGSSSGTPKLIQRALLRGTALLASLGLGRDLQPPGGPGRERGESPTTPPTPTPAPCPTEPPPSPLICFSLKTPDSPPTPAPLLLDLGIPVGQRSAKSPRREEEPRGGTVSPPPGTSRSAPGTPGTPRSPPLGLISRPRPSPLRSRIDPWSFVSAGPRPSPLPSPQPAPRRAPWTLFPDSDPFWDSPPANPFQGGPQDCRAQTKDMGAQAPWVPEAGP
Description: (§1) Meanwhile, the same analogs were analyzed in a radiolabeled ATP assay (10 μM ATP; Reaction Biology Corp.) to compare the extent to which they could inhibit the activity of HGK, MLK1, or MLK3 in a cell-free environment (Table S3 and S4).

MLK1/MAP3K9 = target: T2, MLK1/MAP3K9 (Homo sapiens, UniProt P80192); assay: Radiolabeled ATP kinase assay (Reaction Biology Corp.), MLK1; type: biochemical; details: [Cmpd] 0.1 μM, 10 μM ATP
T2 construct: purchased Reaction Biology Corp
T2 sequence (P80192 whole entry): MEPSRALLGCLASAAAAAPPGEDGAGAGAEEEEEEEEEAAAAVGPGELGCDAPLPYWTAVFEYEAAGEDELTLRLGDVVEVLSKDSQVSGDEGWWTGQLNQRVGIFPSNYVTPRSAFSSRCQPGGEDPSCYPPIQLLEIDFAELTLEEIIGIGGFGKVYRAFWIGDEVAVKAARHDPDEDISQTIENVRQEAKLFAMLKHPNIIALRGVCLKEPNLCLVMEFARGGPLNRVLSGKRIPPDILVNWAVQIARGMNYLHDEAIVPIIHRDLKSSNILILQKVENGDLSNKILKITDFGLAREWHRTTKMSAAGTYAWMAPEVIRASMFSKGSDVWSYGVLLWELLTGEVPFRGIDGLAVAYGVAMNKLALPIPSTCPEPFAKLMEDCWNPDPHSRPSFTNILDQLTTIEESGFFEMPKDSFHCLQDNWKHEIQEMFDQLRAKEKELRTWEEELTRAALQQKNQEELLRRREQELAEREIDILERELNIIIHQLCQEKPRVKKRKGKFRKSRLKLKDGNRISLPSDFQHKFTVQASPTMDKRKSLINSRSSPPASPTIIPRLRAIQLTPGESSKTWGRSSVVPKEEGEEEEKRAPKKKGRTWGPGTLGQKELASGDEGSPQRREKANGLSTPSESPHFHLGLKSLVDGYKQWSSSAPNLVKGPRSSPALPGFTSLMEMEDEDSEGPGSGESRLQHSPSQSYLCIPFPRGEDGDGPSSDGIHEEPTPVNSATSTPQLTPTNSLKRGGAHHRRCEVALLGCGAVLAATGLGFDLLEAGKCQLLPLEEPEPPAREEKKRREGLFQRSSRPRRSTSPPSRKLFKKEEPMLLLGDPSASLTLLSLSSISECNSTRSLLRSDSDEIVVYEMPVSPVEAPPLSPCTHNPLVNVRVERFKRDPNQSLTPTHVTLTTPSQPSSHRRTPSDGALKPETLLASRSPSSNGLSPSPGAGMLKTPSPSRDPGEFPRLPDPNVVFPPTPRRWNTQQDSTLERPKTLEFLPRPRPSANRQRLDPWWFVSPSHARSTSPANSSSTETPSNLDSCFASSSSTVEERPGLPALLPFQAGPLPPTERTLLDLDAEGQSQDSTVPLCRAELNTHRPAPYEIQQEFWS
Description: as §1

HGK/MAP4K4 = HGK/MAP4K4 (Homo sapiens, UniProt O95819); assay: Radiolabeled ATP kinase assay (Reaction Biology Corp.), HGK; type: biochemical; set-up: purchased Reaction Biology Corp; details: 10 μM ATP, read-out: % Enzyme Activity (relative to DMSO controls), HGK/MAP4K4, Data 1; for remaining activity at 0.025 µM: [Cmpd] 0.025 μM; for remaining activity at 0.1 µM: [Cmpd] 0.1 μM
Chain of HGK/MAP4K4 (O95819 whole entry): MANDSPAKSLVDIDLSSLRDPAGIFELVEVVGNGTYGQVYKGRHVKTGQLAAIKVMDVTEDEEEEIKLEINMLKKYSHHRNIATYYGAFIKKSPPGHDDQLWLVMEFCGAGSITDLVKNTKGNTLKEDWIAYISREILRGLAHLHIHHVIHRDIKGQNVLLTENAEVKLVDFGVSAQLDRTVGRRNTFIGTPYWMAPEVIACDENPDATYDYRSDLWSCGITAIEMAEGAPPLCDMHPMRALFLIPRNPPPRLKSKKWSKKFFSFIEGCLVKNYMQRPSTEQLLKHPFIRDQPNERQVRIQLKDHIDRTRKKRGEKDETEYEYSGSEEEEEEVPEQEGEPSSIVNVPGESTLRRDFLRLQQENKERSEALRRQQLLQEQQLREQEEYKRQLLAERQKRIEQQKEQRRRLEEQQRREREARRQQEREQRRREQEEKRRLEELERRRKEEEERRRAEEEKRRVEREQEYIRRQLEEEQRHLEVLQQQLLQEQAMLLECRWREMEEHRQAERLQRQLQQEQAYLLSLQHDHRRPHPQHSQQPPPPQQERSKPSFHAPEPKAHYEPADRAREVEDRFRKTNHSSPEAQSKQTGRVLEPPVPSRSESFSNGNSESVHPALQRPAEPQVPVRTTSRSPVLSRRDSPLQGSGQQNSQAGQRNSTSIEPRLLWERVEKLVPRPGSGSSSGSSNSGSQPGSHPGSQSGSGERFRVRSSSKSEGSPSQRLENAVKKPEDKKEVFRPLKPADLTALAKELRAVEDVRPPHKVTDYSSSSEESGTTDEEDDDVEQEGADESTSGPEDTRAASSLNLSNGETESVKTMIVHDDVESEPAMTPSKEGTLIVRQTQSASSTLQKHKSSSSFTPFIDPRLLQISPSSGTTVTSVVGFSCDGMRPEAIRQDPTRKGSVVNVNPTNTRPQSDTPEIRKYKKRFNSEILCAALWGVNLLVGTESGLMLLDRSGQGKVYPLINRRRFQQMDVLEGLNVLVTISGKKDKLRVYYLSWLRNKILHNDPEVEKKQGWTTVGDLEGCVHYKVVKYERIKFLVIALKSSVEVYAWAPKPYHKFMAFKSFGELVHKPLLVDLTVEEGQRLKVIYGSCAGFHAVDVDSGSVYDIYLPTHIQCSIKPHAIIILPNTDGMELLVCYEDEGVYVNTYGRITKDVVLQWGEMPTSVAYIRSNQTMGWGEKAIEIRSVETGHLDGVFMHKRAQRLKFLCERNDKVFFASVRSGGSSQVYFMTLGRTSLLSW
Description: as §1

[1] = tested on: human ES motor neurons carrying the ALS-causing SOD1^A4V mutation; assay: cells; type: cell-based; details: 72 h, 72 h; for EC50 / Emax: CPA 33 μM; for viability at 1 µM: CPA (33 μM) + compound (1 μM), read-out: Motor Neuron Survival, % untreated; for Emax: read-out: Emax (MN survival % untreated)
Description: Next, survival assays were performed with all the analogs at once to generate a low-variability dataset. All compounds were evaluated at concentrations ranging from 0.1-3.0 μM (five-point dilution) in three technical replicates and two biological replicates.

[2] = read-out: % Enzyme Activity Remaining (relative to DMSO controls), MLK1/MAP3K9, Data 1
[3] = read-out: % Enzyme Activity Remaining (relative to DMSO controls), MLK1/MAP3K9, Data 2
[4] = Homo sapiens, Neuron, read-out: EC50

Row | SMILES | % Enzyme Activity Remaining (relative to DMSO controls), MLK3/MAP3K11, Data 1 (MLK3/MAP3K11) | % Enzyme Activity Remaining (relative to DMSO controls), MLK3/MAP3K11, Data 2 (MLK3/MAP3K11) | remaining activity at 0.1 µM (MLK1/MAP3K9; [2]) | remaining activity at 0.1 µM (MLK1/MAP3K9; [3]) | remaining activity at 0.025 µM (HGK/MAP4K4) | remaining activity at 0.1 µM (HGK/MAP4K4) | EC50 [1, 4] | viability at 1 µM ([1]; Homo sapiens, Neuron) | Emax ([1]; Homo sapiens, Neuron) | EC50 [1]
1 | C[C@@H](NC(=O)Nc1cccc(-c2c[nH]c3ncc(-c4ccc(CN5CCN(C)CC5)cc4)cc23)c1)c1ccccc1 [Compound 7ax, (R)-1-(3-(5-(4-((4-methylpiperazin-1-yl)methyl)phenyl)-1H-pyrrolo[2,3-b]pyridin-3-yl)phenyl)-3-(1-phenylethyl)urea] | 90.99% | 86.58% | 93.5% | 92.3% | 93.6% | 78.7% | 1440 nM | 17.4% | 35.5% | 
2 | CN1CCN(Cc2ccc(-c3cnc4[nH]cc(-c5cccc(NC(=O)NCc6ccco6)c5)c4c3)cc2)CC1 [Compound 7ay, 1-(Furan-2-ylmethyl)-3-(3-(5-(4-((4-methylpiperazin-1-yl)methyl)phenyl)-1H-pyrrolo[2,3-b]pyridin-3-yl)phenyl)urea] | 84.43% | 83.57% | 88.5% | 91.8% | 93.8% | 79% | 91.2 nM | 4.58% | 9.29% | 
3 | COCCNC(=O)Nc1cccc(-c2c[nH]c3ncc(-c4ccc(CN5CCN(C)CC5)cc4)cc23)c1 [Compound 7az, 1-(2-Methoxyethyl)-3-(3-(5-(4-((4-methylpiperazin-1-yl)methyl)phenyl)-1H-pyrrolo[2,3-b]pyridin-3-yl)phenyl)urea] | 79.28% | 80.78% | 79% | 78.5% | 87.1% | 65% | 2990 nM | 22.9% | 51.5% | 
4 | CCOc1ccc(-c2c[nH]c3ncc(-c4ccc(CN5CCN(C)CC5)cc4)cc23)cn1 [Compound 7b, 3-(6-Ethoxypyridin-3-yl)-5-(4-((4-methylpiperazin-1-yl)methyl)phenyl)-1H-pyrrolo[2,3-b]pyridine] | 86.71% | 86.95% | 89.2% | 87.8% | 77.6% | 42.8% | 496 nM | 52.3% | 52.3% | 
5 | CN1CCN(Cc2ccc(-c3cnc4[nH]cc(-c5cccc6c5oc5ccccc56)c4c3)cc2)CC1 [Compound 7c, 3-(Dibenzo[b,d]furan-4-yl)-5-(4-((4-methylpiperazin-1-yl)methyl)phenyl)-1H-pyrrolo[2,3-b]pyridine] | 90.01% | 93.44% | 88.3% | 86.8% | 99.3% | 81.6% |  | 7.84% | 10.4% | Ambiguous
6 | CN1CCN(Cc2ccc(-c3cnc4[nH]cc(-c5ccc(N)cc5)c4c3)cc2)CC1 [Compound 7e, 4-(5-(4-((4-Methylpiperazin-1-yl)methyl)phenyl)-1H-pyrrolo[2,3-b]pyridin-3-yl)aniline] | 51.43% | 54.29% | 51.7% | 54% | 24% | 7.41% | 228 nM | 96.1% | 111% | 
7 | CN1CCN(Cc2ccc(-c3cnc4[nH]cc(-c5csc6ccccc56)c4c3)cc2)CC1 [Compound 7f, 3-(Benzo[b]thiophen-3-yl)-5-(4-((4-methylpiperazin-1-yl)methyl)phenyl)-1H-pyrrolo[2,3-b]pyridine] | 68.84% | 73.51% | 81.1% | 76.5% | 23.2% | 4.89% | 338 nM | 68.3% | 68.3% | 
8 | CN1CCN(Cc2ccc(-c3cnc4[nH]cc(-c5cccc(N)c5)c4c3)cc2)CC1 [Compound 7h, 3-(5-(4-((4-Methylpiperazin-1-yl)methyl)phenyl)-1H-pyrrolo[2,3-b]pyridin-3-yl)aniline] | 62.91% | 63.31% | 48.8% | 43.2% | 98.8% | 87.4% | 177 nM | 106% | 115% | 
9 | CN1CCN(Cc2ccc(-c3cnc4[nH]cc(-c5ccc(F)c(C(=O)O)c5)c4c3)cc2)CC1 [Compound 7i, 2-Fluoro-5-(5-(4-((4-methylpiperazin-1-yl)methyl)phenyl)-1H-pyrrolo[2,3-b]pyridin-3-yl)benzoic acid] | 57.91% | 50.75% | 80.2% | 79.4% | 85.3% | 54.6% |  | 7.82% | 13.3% | Ambiguous
10 | CN1CCN(Cc2ccc(-c3cnc4[nH]cc(-c5cnc(N)nc5)c4c3)cc2)CC1 [Compound 7k, 5-(5-(4-((4-Methylpiperazin-1-yl)methyl)phenyl)-1H-pyrrolo[2,3-b]pyridin-3-yl)pyrimidin-2-amine] | 71.64% | 75.32% | 69% | 70.8% | 48.3% | 16.5% | 316 nM | 71% | 71% | 
11 | Cc1cc(-c2c[nH]c3ncc(-c4ccc(CN5CCN(C)CC5)cc4)cc23)cnc1N [Compound 7l, 3-Methyl-5-(5-(4-((4-methylpiperazin-1-yl)methyl)phenyl)-1H-pyrrolo[2,3-b]pyridin-3-yl)pyridin-2-amine] | 58.50% | 57.04% | 53.2% | 52.4% | 27% | 5.45% | 177 nM | 106% | 106% | 
12 | CN1CCN(Cc2ccc(-c3cnc4[nH]cc(-c5ccc(N)nc5)c4c3)cc2)CC1 [Compound 7m, 5-(5-(4-((4-Methylpiperazin-1-yl)methyl)phenyl)-1H-pyrrolo[2,3-b]pyridin-3-yl)pyridin-2-amine] | 67.62% | 67.85% | 96.7% | 96.3% | 38.4% | 10.8% | 213 nM | 76.1% | 76.1% | 
13 | CN1CCN(Cc2ccc(-c3cnc4[nH]cc(-c5ccc(C#N)cc5)c4c3)cc2)CC1 [Compound 7o, 4-(5-(4-((4-Methylpiperazin-1-yl)methyl)phenyl)-1H-pyrrolo[2,3-b]pyridin-3-yl)benzonitrile] | 90.12% | 92.65% | 93.4% | 90.7% | 58.9% | 29.3% | 775 nM | 49.7% | 68.6% | 
14 | CN1CCN(Cc2ccc(-c3cnc4[nH]cc(-c5cccc([N+](=O)[O-])c5)c4c3)cc2)CC1 [Compound 7p, 5-(4-((4-Methylpiperazin-1-yl)methyl)phenyl)-3-(3-nitrophenyl)-1H-pyrrolo[2,3-b]pyridine] | 40.84% | 42.08% | 62.7% | 62.9% | 3.92% | 1.56% | 293 nM | 116% | 131% | 
15 | CN1CCN(Cc2ccc(-c3cnc4[nH]cc(-c5cnn(C)c5)c4c3)cc2)CC1 [Compound 7s, 3-(1-Methyl-1H-pyrazol-4-yl)-5-(4-((4-methylpiperazin-1-yl)methyl)phenyl)-1H-pyrrolo[2,3-b]pyridine] | 90.97% | 90.45% | 94.8% | 94.3% | 77.8% | 37% | 2190 nM | 42.9% | 100% | 
